# Reference: a compilation of properties of binary mixtures (doi:10.1021/jp071051m)
# Assay: xn = mol fraction of the nth substance listed
# Conditions: 298.15 K, 101 kPa
smiles,measurement,setting,value
CCCC[n+]1ccn(C)c1.O=C([O-])C(F)(F)F + CC#N,electrical conductivity,x2 = 0,0.455 S/m
same,viscosity,x2 = 0,52.9 mPa·s
same,electrical conductivity,x2 = 0.0798,0.562 S/m
same,viscosity,x2 = 0.0798,42.7 mPa·s
same,electrical conductivity,x2 = 0.1769,0.699 S/m
same,viscosity,x2 = 0.1769,31.7 mPa·s
same,electrical conductivity,x2 = 0.3539,1.05 S/m
same,viscosity,x2 = 0.3539,17.4 mPa·s
same,electrical conductivity,x2 = 0.4443,1.32 S/m
same,viscosity,x2 = 0.4443,12.1 mPa·s
same,electrical conductivity,x2 = 0.547,1.69 S/m
same,viscosity,x2 = 0.547,7.61 mPa·s
same,electrical conductivity,x2 = 0.6553,2.19 S/m
same,viscosity,x2 = 0.6553,4.38 mPa·s
same,electrical conductivity,x2 = 0.7649,2.76 S/m
same,viscosity,x2 = 0.7649,2.27 mPa·s
same,electrical conductivity,x2 = 0.8457,3.06 S/m
same,viscosity,x2 = 0.8457,1.19 mPa·s
same,electrical conductivity,x2 = 0.8802,3.09 S/m
same,viscosity,x2 = 0.8802,1.09 mPa·s
CCCC[n+]1ccn(C)c1.F[P-](F)(F)(F)(F)F + CC(C)=O,electrical conductivity,x2 = 0,0.157 S/m
same,viscosity,x2 = 0,260 mPa·s
same,electrical conductivity,x2 = 0.1006,0.256 S/m
same,viscosity,x2 = 0.1006,148 mPa·s
same,electrical conductivity,x2 = 0.1935,0.389 S/m
same,viscosity,x2 = 0.1935,89 mPa·s
same,electrical conductivity,x2 = 0.3033,0.612 S/m
same,viscosity,x2 = 0.3033,48.4 mPa·s
same,electrical conductivity,x2 = 0.3988,0.89 S/m
same,viscosity,x2 = 0.3988,27.4 mPa·s
same,electrical conductivity,x2 = 0.6016,1.81 S/m
same,viscosity,x2 = 0.6016,7.36 mPa·s
same,electrical conductivity,x2 = 0.6992,2.38 S/m
same,viscosity,x2 = 0.6992,3.76 mPa·s
same,electrical conductivity,x2 = 0.8433,3.11 S/m
same,viscosity,x2 = 0.8433,1.34 mPa·s
same,electrical conductivity,x2 = 0.8853,3.12 S/m
same,viscosity,x2 = 0.8853,1.02 mPa·s
ClCCl + CCCC[n+]1ccn(C)c1.F[P-](F)(F)(F)(F)F,electrical conductivity,x1 = 0.0753,0.213 S/m
same,viscosity,x1 = 0.0753,180 mPa·s
same,electrical conductivity,x1 = 0.163,0.294 S/m
same,viscosity,x1 = 0.163,129 mPa·s
same,electrical conductivity,x1 = 0.3361,0.533 S/m
same,viscosity,x1 = 0.3361,58.2 mPa·s
same,electrical conductivity,x1 = 0.5384,0.97 S/m
same,viscosity,x1 = 0.5384,18.7 mPa·s
same,electrical conductivity,x1 = 0.6462,1.24 S/m
same,viscosity,x1 = 0.6462,9.5 mPa·s
same,electrical conductivity,x1 = 0.738,1.43 S/m
same,viscosity,x1 = 0.738,5 mPa·s
same,electrical conductivity,x1 = 0.8242,1.42 S/m
same,viscosity,x1 = 0.8242,2.57 mPa·s
same,electrical conductivity,x1 = 0.8678,1.3 S/m
same,viscosity,x1 = 0.8678,1.82 mPa·s
CCCC[n+]1ccn(C)c1.F[P-](F)(F)(F)(F)F + CCOC(C)=O,electrical conductivity,x2 = 0,0.157 S/m
same,viscosity,x2 = 0,260 mPa·s
same,electrical conductivity,x2 = 0.0883,0.229 S/m
same,viscosity,x2 = 0.0883,167 mPa·s
same,electrical conductivity,x2 = 0.1793,0.326 S/m
same,viscosity,x2 = 0.1793,101 mPa·s
same,electrical conductivity,x2 = 0.4691,0.771 S/m
same,viscosity,x2 = 0.4691,21 mPa·s
same,electrical conductivity,x2 = 0.5703,0.96 S/m
same,viscosity,x2 = 0.5703,11.3 mPa·s
same,electrical conductivity,x2 = 0.6738,1.1 S/m
same,viscosity,x2 = 0.6738,5.69 mPa·s
same,electrical conductivity,x2 = 0.8339,0.96 S/m
same,viscosity,x2 = 0.8339,2.07 mPa·s
CCCC[n+]1ccn(C)c1.O=C([O-])C(F)(F)F + ClC(Cl)Cl,electrical conductivity,x2 = 0,0.455 S/m
same,viscosity,x2 = 0,52.9 mPa·s
same,electrical conductivity,x2 = 0.0918,0.507 S/m
same,viscosity,x2 = 0.0918,46.4 mPa·s
same,electrical conductivity,x2 = 0.1815,0.558 S/m
same,viscosity,x2 = 0.1815,40.4 mPa·s
same,electrical conductivity,x2 = 0.2793,0.618 S/m
same,viscosity,x2 = 0.2793,33.7 mPa·s
same,electrical conductivity,x2 = 0.3861,0.692 S/m
same,viscosity,x2 = 0.3861,25.9 mPa·s
same,electrical conductivity,x2 = 0.482,0.766 S/m
same,viscosity,x2 = 0.482,19.3 mPa·s
same,electrical conductivity,x2 = 0.5804,0.85 S/m
same,viscosity,x2 = 0.5804,13 mPa·s
same,electrical conductivity,x2 = 0.6467,0.89 S/m
same,viscosity,x2 = 0.6467,9.7 mPa·s
same,electrical conductivity,x2 = 0.6812,0.9 S/m
same,viscosity,x2 = 0.6812,7.85 mPa·s
same,electrical conductivity,x2 = 0.729,0.89 S/m
same,viscosity,x2 = 0.729,6.06 mPa·s
same,electrical conductivity,x2 = 0.7847,0.826 S/m
same,viscosity,x2 = 0.7847,4.02 mPa·s
same,electrical conductivity,x2 = 0.8677,0.603 S/m
same,viscosity,x2 = 0.8677,2.02 mPa·s
CCCC[n+]1ccn(C)c1.F[P-](F)(F)(F)(F)F + ClCCl,electrical conductivity,x2 = 0,0.157 S/m
same,viscosity,x2 = 0,260 mPa·s
CCCC[n+]1ccn(C)c1.O=C([O-])C(F)(F)F + O,electrical conductivity,x2 = 0,0.455 S/m
same,viscosity,x2 = 0,52.9 mPa·s
same,electrical conductivity,x2 = 0.1093,0.543 S/m
same,viscosity,x2 = 0.1093,46.3 mPa·s
same,electrical conductivity,x2 = 0.197,0.619 S/m
same,viscosity,x2 = 0.197,40.9 mPa·s
same,electrical conductivity,x2 = 0.2888,0.713 S/m
same,viscosity,x2 = 0.2888,35.5 mPa·s
same,electrical conductivity,x2 = 0.396,0.88 S/m
same,viscosity,x2 = 0.396,29.2 mPa·s
same,electrical conductivity,x2 = 0.4921,1.07 S/m
same,viscosity,x2 = 0.4921,23.8 mPa·s
same,electrical conductivity,x2 = 0.5897,1.34 S/m
same,viscosity,x2 = 0.5897,18.7 mPa·s
same,electrical conductivity,x2 = 0.6918,1.72 S/m
same,viscosity,x2 = 0.6918,13.6 mPa·s
same,electrical conductivity,x2 = 0.7927,2.38 S/m
same,viscosity,x2 = 0.7927,9 mPa·s
same,electrical conductivity,x2 = 0.884,3.14 S/m
same,viscosity,x2 = 0.884,5.13 mPa·s
same,electrical conductivity,x2 = 0.9195,3.34 S/m
same,viscosity,x2 = 0.9195,3.67 mPa·s
CCCC[n+]1ccn(C)c1.F[P-](F)(F)(F)(F)F + c1ccncc1,electrical conductivity,x2 = 0,0.157 S/m
same,viscosity,x2 = 0,260 mPa·s
same,electrical conductivity,x2 = 0.0964,0.222 S/m
same,viscosity,x2 = 0.0964,161 mPa·s
same,electrical conductivity,x2 = 0.1929,0.308 S/m
same,viscosity,x2 = 0.1929,102 mPa·s
same,electrical conductivity,x2 = 0.291,0.435 S/m
same,viscosity,x2 = 0.291,63.4 mPa·s
same,electrical conductivity,x2 = 0.3899,0.599 S/m
same,viscosity,x2 = 0.3899,38 mPa·s
same,electrical conductivity,x2 = 0.5922,1.11 S/m
same,viscosity,x2 = 0.5922,12.1 mPa·s
same,electrical conductivity,x2 = 0.6978,1.43 S/m
same,viscosity,x2 = 0.6978,6.35 mPa·s
same,electrical conductivity,x2 = 0.7695,1.63 S/m
same,viscosity,x2 = 0.7695,3.73 mPa·s
same,electrical conductivity,x2 = 0.8372,1.73 S/m
same,viscosity,x2 = 0.8372,2.42 mPa·s
same,electrical conductivity,x2 = 0.8781,1.68 S/m
same,viscosity,x2 = 0.8781,1.94 mPa·s
